The text below walks through data of US20090023747A1, “Cysteine Protease Inhibitors” (priority 2005, published 2009).

One series deals with T1, cathepsin K (Homo sapiens, UniProt P43235).
T1 construct: made in house; host or cells: not fixed: E coli, Pichia or Baculovirus systems named as options
T1 sequence (P43235 115-329): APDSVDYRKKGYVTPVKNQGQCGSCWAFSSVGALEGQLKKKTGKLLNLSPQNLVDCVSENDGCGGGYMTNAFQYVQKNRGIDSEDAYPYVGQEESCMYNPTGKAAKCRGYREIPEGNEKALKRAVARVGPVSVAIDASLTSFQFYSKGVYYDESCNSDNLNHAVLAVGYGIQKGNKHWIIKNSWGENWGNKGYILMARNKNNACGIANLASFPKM
The experiment in a line: Determination of cathepsin K proteolytic catalytic activity (fluorogenic peptide substrate). The series is classed as biochemical. The conditions noted are these: human recombinant enzyme. On the procedure: Convenient assays for cathepsin K are carried out using human recombinant enzyme, such as that described in PDB.
The recombinant cathepsin K can be expressed in a variety of commercially available expression systems including E coli, Pichia and Baculovirus systems.
The purified enzyme is activated by removal of the prosequence by conventional methods.
Standard assay conditions for the determination of kinetic constants used a fluorogenic peptide substrate, typically H-D-Ala-Leu-Lys-AMC, and were determined in either 100 mM Mes/Tris, pH 7.0 containing 1 mM EDTA and 10 mM 2-mercaptoethanol or 100 mMNa phosphate, imM EDTA, 0.1% PEG4000 pH 6.5 or 100 mM Na acetate, pH 5.5 containing 5 mM EDTA and 20 mM cysteine, in each case optionally with […] as stabiliser. The enzyme concentration used was 5 nM. The stock substrate solution was prepared at 10 mM in DMSO. Screens were carried out at a fixed substrate concentration of 60 μM and detailed kinetic studies with doubling dilutions of substrate from 250 μM. The total DMSO concentration in the assay was kept below 3%. All assays were conducted at ambient temperature. Product fluorescence (excitation at 390 nm, emission at 460 nm) was monitored with a Labsystems Fluoroskan Ascent fluorescent plate reader. Product progress curves were generated over 15 minutes following generation of AMC product.
(§1) Potential inhibitors are screened using the above assay with variable concentrations of test compound. Reactions were initiated by addition of enzyme to buffered solutions of substrate and inhibitor. Ki values were calculated according to equation 1
(§2) where v0 is the velocity of the reaction, V is the maximal velocity, S is the concentration of substrate with Michaelis constant of KM, and I is the concentration of inhibitor.

The target in the next series is cathepsin L (Homo sapiens, UniProt P07711). The experiment in a line: Cathepsin L Ki determination (H-D-Val-Leu-Lys-AMC substrate). It counts as biochemical. On the procedure: The procedure above with the following amendments is used for the determination of Ki for cathepsin L.
Sequence of cathepsin L (P07711 114-333): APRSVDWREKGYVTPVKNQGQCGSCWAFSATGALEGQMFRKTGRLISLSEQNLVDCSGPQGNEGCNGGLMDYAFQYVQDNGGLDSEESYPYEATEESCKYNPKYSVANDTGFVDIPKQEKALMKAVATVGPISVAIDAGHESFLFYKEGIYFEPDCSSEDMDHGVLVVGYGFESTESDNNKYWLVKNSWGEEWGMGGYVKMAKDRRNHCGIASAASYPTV
The enzyme is commercially available human cathepsin L (for example Calbiochem). The substrate is H-D-Val-Leu-Lys-AMC available from Bahcem. The assay buffer is 100 mM sodium acetate 1 mM EDTA, pH5.5) The DMSO stock (10 mM in 100% DMSO) is diluted to 10% in assay buffer. Enzyme is prepared at 5 nM concentration in assay buffer plus 1 mM dithiothreitol just before use. 2 ul of 10 mM inhibitor made up in 100% DMSO is dispensed into row A. 10 ul of 50 uM substrate (=1/200 dilution of 10 mM stock in DMSO, diluted in assay buffer)
as §1, §2

The target of the next series is T2, cathepsin S (Homo sapiens, UniProt P25774).
T2 construct: made in house
T2 sequence (P25774 115-331): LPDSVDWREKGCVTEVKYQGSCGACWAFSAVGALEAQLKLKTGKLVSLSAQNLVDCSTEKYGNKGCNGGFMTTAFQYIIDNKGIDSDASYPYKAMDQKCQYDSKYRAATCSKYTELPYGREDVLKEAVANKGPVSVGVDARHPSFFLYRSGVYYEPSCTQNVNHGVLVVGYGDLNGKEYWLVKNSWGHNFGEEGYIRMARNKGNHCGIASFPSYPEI
Description: Cathepsin S Ki determination (boc-Val-Leu-Lys-AMC substrate). To be noted: baculovirus-expressed human cathepsin S. It counts as biochemical. On the procedure:
The assay uses baculovirus-expressed human cathepsin S and the boc-Val-Leu-Lys-AMC fluorescent substrate available from Bachem in a 384 well plate format, in which 7 test compounds can be tested in parallel with a positive control comprising a known cathepsin S inhibitor comparator.
280 μl/well of 12.5% DMSO are added to rows B-H of two columns of a 96 deep well polypropylene plate. 70 μl/well of substrate is added to row A. 2×250 μl/well of assay buffer (100 mM Na phosphate, 100 mM NaCl, pH 6.5) is added to row A, mixed, and double diluted down the plate to row H.
100 μl/well of assay buffer is added to columns 2-5 and 7-12 of 4 rows of a 96 well V bottom polypropylene plate. 200 μl/well of assay buffer is added to columns 1 and 6.
2 μl of each 10 mM test compound is added to a separate well on row A, columns 1-10. Add 90 μl assay buffer containing 1 mM DTT and 2 nM cathepsin S to each well of rows B-H and 180 μl to row A. Mix row A using a multichannel pipette and double dilute to row G. Mix row H and read in the fluorescent spectrophotometer.
The second test compound is added to column 6 of the top row, the third to column 1 of the second row etc. Add 1 μl of comparator to column 6 of the bottom row. Mix column 1 and double dilute to column 5. Mix column 6 and double dilute to column 10.
Using an 8-channel multistepping pipette set to 5×10 μl, distribute 10 μl/well of substrate to the 384 well assay plate. Distribute the first column of the substrate dilution plate to all columns of the assay plate starting at row A. The tip spacing of the multichannel pipette will correctly skip alternate rows. Distribute the second column to all columns starting at row B.
Using a 12-channel multistepping pipette set to 4×10 μl, distribute 10 μl/well of inhibitor to the 384 well assay plate. Distribute the first row of the inhibitor dilution plate to alternate rows of the assay plate starting at A1. The tip spacing of the multichannel pipette will correctly skip alternate columns. Similarly, distribute the second, third and fourth rows to alternate rows and columns starting at A2, B1 and B2 respectively.
Mix 20 ml assay buffer and 20 μl 1M DTT. Add sufficient cathepsin S to give 2 nM final concentration.
Using the a distributor such as a Multidrop 384, add 30 μl/well to all wells of the assay plate and read in fluorescent spectrophotomoter such as an Ascent.
Fluorescent readings, (excitation and emission wavelengths 390 nm and 460 nm respectively, set using bandpass filters) reflecting the extent of enzyme cleavage of the fluorescent substrate, […] the inhibitor, are linear rate fitted for each well.
Fitted rates for all wells for each inhibitor are fitted to the competitive inhibition equation using SigmaPlot 2000 to determine V, Km and Ki values.
as §1, §2

For series [1] the following is noted: reference markers for the permeability assay; cited from earlier work.

With `CC(C)C[C@H](N[C@@H](c1ccc(-c2ccc(S(C)(=O)=O)cc2)cc1)C(F)(F)F)C(=O)N1C[C@H](F)[C@H]2OCC(=O)[C@H]21` [Example 14, (3aS,6S,6aS)-6-Fluoro-4-[(S)-4-methyl-2-{(S)-2,2,2-trifluoro-1-(4′-methanesulfonyl-biphenyl-4-yl)-ethylamino]-pentanoyl}-tetrahydro-furo[3,2-b]pyrrol-3-one], the values for the IC50 at cathepsin K, against cathepsin L and against cathepsin S were 0.029 µM, 100 µM and 36 µM, respectively.

Take `CC(C)C[C@H](N[C@@H](c1ccc(-c2cccc(S(C)(=O)=O)c2)cc1)C(F)(F)F)C(=O)N1C[C@H](F)[C@H]2OCC(=O)[C@H]21` [Example 18, (3aS,6S,6aS)-6-Fluoro-4-{(S)-4-methyl-2-[(S)-2,2,2-trifluoro-1-(3′-methanesulfonyl-biphenyl-4-yl)-ethylamino]-pentanoyl}-tetrahydro-furo[3,2-b]pyrrol-3-one]: the half-maximal inhibitory concentration (IC50) on cathepsin K stood at 0.056 µM; against cathepsin L, 94 µM; at cathepsin S it was 19 µM.

For the molecule `CC(C)C[C@H](N[C@@H](c1ccc(-c2ccc(F)cc2)cc1)C(F)(F)F)C(=O)N1C[C@H](F)[C@H]2OCC(=O)[C@H]21` [Example 20, (3aS,6S,6aS)-6-Fluoro-4-{(S)-4-methyl-2-[(S)-2,2,2-trifluoro-1-(4′-fluoro-biphenyl-4-yl)-ethylamino]-pentanoyl}-tetrahydro-furo[3,2-b]pyrrol-3-one], the IC50 at cathepsin K turned out to be 0.18 µM; at cathepsin L, 30 µM; on cathepsin S it was 37 µM.

As for `CC(C)C[C@H](N[C@@H](c1ccc(-c2ccccc2F)cc1)C(F)(F)F)C(=O)N1C[C@H](F)[C@H]2OCC(=O)[C@H]21` [Example 26, (3aS,6S,6aS)-6-Fluoro-4-{(S)-4-methyl-2-[(S)-2,2,2-trifluoro-1-(2′-fluoro-biphenyl-4-yl)-ethylamino]-pentanoyl}-tetrahydro-furo[3,2-b]pyrrol-3-one], the values for the concentration for half-maximal inhibition (IC50) on cathepsin K, on cathepsin L and on cathepsin S were 0.044 µM, 25 µM and 22 µM, respectively.

With `CSc1ccc(-c2ccc([C@H](N[C@@H](CC(C)C)C(=O)N3C[C@H](F)[C@H]4OCC(=O)[C@H]43)C(F)(F)F)cc2)cc1` [Example 28, (3aS,6S,6aS)-6-Fluoro-4-{(S)-4-methyl-2-[(S)-2,2,2-trifluoro-1-(4′-methylsulfanyl-biphenyl-4-yl)-ethylamino]-pentanoyl}-tetrahydro-furo[3,2-b]pyrrol-3-one], the half-maximal inhibitory concentration (IC50) at cathepsin K stood at 0.051 µM; against cathepsin L it was 5.5 µM; against cathepsin S it was 10 µM.

Consider `CC(C)C[C@H](N[C@@H](c1ccc(-c2ccc([S+](C)[O-])cc2)cc1)C(F)(F)F)C(=O)N1C[C@H](F)[C@H]2OCC(=O)[C@H]21` (stereo partly drawn) [Example 29, (3aS,6S,6aS)-6-Fluoro-4-{(S)-4-methyl-2-[(S)-2,2,2-trifluoro-1-(4′-methylsulfoxide-biphenyl-4-yl)-ethylamino]-pentanoyl}-tetrahydro-furo[3,2-b]pyrrol-3-one], for which the half-inhibitory concentration (IC50) is 0.018 µM on cathepsin K, 180 µM on cathepsin L and 27 µM at cathepsin S.

Consider `COc1ccc(-c2ccc([C@H](N[C@@H](CC(C)C)C(=O)N3C[C@H](F)[C@H]4OCC(=O)[C@H]43)C(F)(F)F)cc2)cc1` [Example 31, (3aS,6S,6aS)-6-Fluoro-4-{(S)-4-methyl-2-[(S)-2,2,2-trifluoro-1-(4′-methoxy-biphenyl-4-yl)-ethylamino]-pentanoyl}-tetrahydro-furo[3,2-b]pyrrol-3-one], for which the IC50 at cathepsin K amounted to 0.07 µM; against cathepsin L, 29 µM; against cathepsin S, 19 µM.

`Cc1ccc(-c2ccc([C@H](N[C@@H](CC(C)C)C(=O)N3C[C@H](F)[C@H]4OCC(=O)[C@H]43)C(F)(F)F)cc2)cc1` [Example 33, (3aS,6S,6aS)-6-Fluoro-4-{(S)-4-methyl-2-[(S)-2,2,2-trifluoro-1-(4′-methyl-biphenyl-4-yl)-ethylamino]-pentanoyl}-tetrahydro-furo[3,2-b]pyrrol-3-one]: the 50% inhibitory concentration (IC50) on cathepsin K turned out to be 0.19 µM; at cathepsin L, 20 µM; on cathepsin S, 20 µM.

As for `CC(C)C[C@H](N[C@@H](c1ccc(-c2csc(N3CCN(C)CC3)n2)cc1)C(F)(F)F)C(=O)N1C[C@H](F)[C@H]2OCC(=O)[C@H]21` [Example 58, (3aS,6S,6aS)-6-Fluoro-4-[(S)-4-methyl-2-((S)-2,2,2-trifluoro-1-{4-[2-(4-methyl-piperazin-1-yl)-thiazol-4-yl]-phenyl}-ethylamino)-pentanoyl]-tetrahydro-furo[3,2-b]pyrrol-3-one], the half-inhibitory concentration (IC50) on cathepsin K is less than 0.005 µM; at cathepsin L, 139 µM; against cathepsin S it was 188 µM.

In the case of `N[C@@H](Cc1ccccc1)C(=O)O` [L-Phenylalanine], the “% absorption in man” value in series [1] is listed as 100%.

Take `OC[C@@H](O)[C@@H](O)[C@H](O)[C@H](O)CO` [Mannitol]: the “% absorption in man” value in series [1] is 16%.

Take `CN(Cc1cnc2nc(N)nc(N)c2n1)c1ccc(C(=O)N[C@@H](CCC(=O)O)C(=O)O)cc1` [Methotrexate]: the “% absorption in man” value in series [1] is listed as 20%.

The IC50 is the concentration needed to halve the response being measured.
